Results on 22 molecules are retold here after ChEMBL document CHEMBL1153503, “Design and synthesis of novel nitrogen-containing polyhydroxylated aromatics as HIV-1 integrase inhibitors from caffeic acid phenethyl ester” (Bioorg Med Chem Lett, 2009).

Test [1] concerns the target T1, Human immunodeficiency virus type 1 integrase (Human immunodeficiency virus 1, UniProt Q7ZJM1). Kind of test: Inhibition of HIV1 integrase assessed as inhibition of strand transfer activity by 32P-labelled assay.
The target in test [2] is T1, Human immunodeficiency virus type 1 integrase.
Description: Inhibition of HIV1 integrase assessed as inhibition of 3'-end processing by 32P-labelled assay
The target in test [3] is Human immunodeficiency virus type 1 integrase (Human immunodeficiency virus 1) (UniProt Q7ZJM1). Put plainly: Selectivity index, ratio of IC50 for HIV1 integrase 3'-end processing to IC50 for HIV1 integrase strand transfer activity.
Human immunodeficiency virus type 1 integrase (Human immunodeficiency virus 1), sequence (Q7ZJM1 as listed by the source): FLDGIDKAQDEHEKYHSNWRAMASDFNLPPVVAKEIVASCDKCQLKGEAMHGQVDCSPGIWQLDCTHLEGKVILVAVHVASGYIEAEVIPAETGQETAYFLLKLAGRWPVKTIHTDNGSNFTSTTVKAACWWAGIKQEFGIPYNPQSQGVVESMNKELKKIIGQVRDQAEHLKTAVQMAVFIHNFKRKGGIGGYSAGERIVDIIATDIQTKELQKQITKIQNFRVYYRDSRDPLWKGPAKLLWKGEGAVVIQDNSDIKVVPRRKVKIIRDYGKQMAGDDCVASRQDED

Structures are written as SMILES. pIC50: −log10 of the molar value.

T1 sequence (Q7ZJM1 whole entry): as the sequence (Q7ZJM1 as listed by the source) above

By pIC50 is commonly meant the IC50 on a negative log10 scale, so that one unit is a factor of ten. For `O=C(/C=C/c1ccc(O)c(O)c1)Nc1ccc(S(=O)(=O)Nc2ccccc2)cc1`, the pIC50 in test [1] is 4.92; in test [2] it was 4.80.

For `CCOc1ccc(NS(=O)(=O)c2ccc(NC(=O)c3cc(O)c(O)c(O)c3)cc2)cc1`, the pIC50 was 5.89 in test [1] and 5.22 in test [2].

Turning to `O=C(Nc1ccc(S(=O)(=O)Nc2ccccc2)cc1)c1ccc(O)c(O)c1`, the pIC50 was 4.30 in test [1] and 4.00 in test [2].

Consider `O=C(Nc1ccc(S(=O)(=O)NCc2ccc(F)cc2)cc1)c1cc(O)c(O)c(O)c1`, for which the pIC50 was 5.70 in test [1] and 5.15 in test [2].

As to `O=C(Nc1ccc(S(=O)(=O)Nc2ccccc2)cc1)c1cc(O)c(O)c(O)c1`, the figures for the pIC50 in test [1] and in test [2] were 5.82 and 5.15, respectively.

For the molecule `O=C(Nc1ccc(S(=O)(=O)Nc2ccc(F)cc2)cc1)c1cc(O)c(O)c(O)c1`, the pIC50 in test [1] was 6.05; in test [2], 5.15.

Take `O=C(Nc1ccc(S(=O)(=O)Nc2ccc(Cl)c(Cl)c2)cc1)c1cc(O)c(O)c(O)c1`: the pIC50 in test [1] is 5.77; in test [2] it was 5.30.

On to `O=C(Nc1ccc(S(=O)(=O)NCc2ccc(Cl)cc2)cc1)c1cc(O)c(O)c(O)c1`, for which the pIC50 in test [1] is 5.70; in test [2], 5.30.

`O=C(Nc1ccc(S(=O)(=O)Nc2ccc(F)c(F)c2)cc1)c1cc(O)c(O)c(O)c1`: the pIC50 in test [1] was 5.82; in test [2], 5.40.

Turning to `O=C(Nc1ccc(S(=O)(=O)Nc2cccc(Br)c2)cc1)c1cc(O)c(O)c(O)c1`, the pIC50 in test [1] was 6.15; in test [2], 5.70.

Turning to `CCCCc1ccc(NS(=O)(=O)c2ccc(NC(=O)c3cc(O)c(O)c(O)c3)cc2)cc1`, the negative-log IC50 (pIC50) in test [1] was 5.60; in test [2] it was 5.52.

In the case of `COc1ccc(NS(=O)(=O)c2ccc(NC(=O)c3cc(O)c(O)c(O)c3)cc2)cc1`, the pIC50 in test [1] is 5.35; in test [2], 5.30.

In the case of `Cc1ccccc1NS(=O)(=O)c1ccc(NC(=O)c2cc(O)c(O)c(O)c2)cc1`, the pIC50 in test [1] was 5.70; in test [2], 5.15.

For `Cc1cc(C)cc(NS(=O)(=O)c2ccc(NC(=O)c3cc(O)c(O)c(O)c3)cc2)c1`, the pIC50 in test [1] is 5.60; in test [2], 5.10.

As for `CC(=O)Oc1cc(C(=O)Nc2ccc(S(=O)(=O)Nc3ccccc3C)cc2)cc(OC(C)=O)c1OC(C)=O`, the pIC50 in test [1] is 5.80; in test [2] it was under 5.00.

For `O=C(Nc1ccc(S(=O)(=O)Nc2ccc(F)c(F)c2F)cc1)c1cc(O)c(O)c(O)c1`, the figures for the pIC50 in test [1] and in test [2] were 5.52 and 5.15, respectively.

`NS(=O)(=O)c1ccc(NC(=O)c2cc(O)c(O)c(O)c2)cc1`: the pIC50 in test [1] was 5.70; in test [2] it was 4.66. Moreover, in test [3], the Ratio IC50 was 11.

Take `O=C(Nc1ccc(S(=O)(=O)Nc2ccc(Cl)cc2)cc1)c1cc(O)c(O)c(O)c1`: the pIC50 in test [1] is 5.70; in test [2], 5.22.

With `Cc1ccc(NS(=O)(=O)c2ccc(NC(=O)c3cc(O)c(O)c(O)c3)cc2)cc1C`, the pIC50 in test [1] and in test [2] was 5.10 in each case.

For the molecule `CC(=O)Oc1cc(C(=O)Nc2ccc(S(=O)(=O)Nc3ccccc3)cc2)cc(OC(C)=O)c1OC(C)=O`, the pIC50 is 5.80 in test [1] and 5.10 in test [2].

`O=C(Nc1ccc(S(=O)(=O)Nc2ccc(Br)cc2)cc1)c1cc(O)c(O)c(O)c1`: the values for the pIC50 in test [1] and in test [2] were 6.15 and 5.52, respectively.

Take `O=C(Nc1ccc(S(=O)(=O)Nc2ccc([N+](=O)[O-])cc2)cc1)c1cc(O)c(O)c(O)c1`: the results for the pIC50 in test [1] and in test [2] were 5.52 and 5.40, respectively.
